Results on 1 molecule are retold here after patent publication US12239645B2, “Targeted dosing for the treatment of complement mediated disorders” (Achillion Pharmaceuticals, Inc., priority 2018, dated 2025).

This assay has as its system complement alternative pathway (AP) activity. The experiment in a line: MAD study: serum AP activity ex vivo by AP Wieslab assay. It is filed as in vivo, human. To be noted: for % AUEC0-12 / DURATION0-12: Days 7 and 14 combined analysis. The method, then:
Serum AP hemolysis activity was assessed in samples collected from all cohorts at predefined time points from Day 1 (pre-dose) through Day 21. Intense sampling was obtained on Day 1 (0 h to 12 h), Day 7 (0 h to 12 h), and Day 14 (0 h to 16 h); all other serum samples were collected at 0 h (morning PK troughs) on the indicated days. Activity for each cohort is shown for the complete time course Day 1-21 (FIG. 17), Day 1 (FIG. 18), Day 7 (FIG. 19) and Day 14 (FIG. 20). Serum complement AP activity measured ex vivo by the AP Wieslab assay, serum total complement classical pathway (CP) activity, plasma complement Bb concentrations, and serum FD, C3, and C4 concentrations were also measured at predefined time points.

Where [1] appears, read: Homo sapiens, sigmoidal model, multiple-dose cohorts.

SMILES strings stand for the structures. Converted amounts (≈) assume the structure as drawn.

Broadly, the inhibition is how much of the control response was suppressed. Usually EC50 stands for the concentration that produces a half-maximal response. Broadly, the EC90 is the concentration at which the effect reaches the 90% level. A high value points to weaker potency. Take `CC(=O)c1nn(CC(=O)N2[C@H](C(=O)Nc3nc(Br)ccc3C)C[C@@]3(C)C[C@@H]23)c2ccc(-c3cnc(C)nc3)cc12` [Compound 1, (1R,3S,5R)-2-(2-(3-acetyl-5-(2-methylpyrimidin-5-yl)-1H-indazol-1-yl)acetyl)-N-(6-bromo-3-methylpyridin-2-yl)-5-methyl-2-azabicyclo[3.1.0]hexane-3-carboxamide]: under “120 mg BID”, the “% AUEC0-12” value came out at 98.6% and the DURATION0-12 is 11.6 h. For the same molecule, where the note is “200 mg BID”, the “% AUEC0-12” value is on record as 99.3% and the DURATION0-12 was 11.9 h. In addition, where the note is “Homo sapiens, 120 mg BID and 200 mg BID, read-out: calculated percent inhibition across 0 h and 12 h time points”, the inhibition at 120 mg was greater than 90%. Also, where the note is “Homo sapiens, Emax model, multiple-dose cohorts”, the EC50 amounted to 0.0143 µg/mL (≈ 0.0237 µM). In addition, under setting [1], the EC50 is 0.0192 µg/mL (≈ 0.0319 µM) and the EC90 came out at 0.0669 µg/mL (≈ 0.111 µM).
